Test results: ChEMBL document CHEMBL1147208, “Asymmetric synthesis of chiral piperazinylpropylisoxazoline ligands for dopamine receptors” (Eur J Med Chem, 2007)
pKi: −log10 of the molar value.

Assays:
[1] = target: D(2) dopamine receptor (Homo sapiens, UniProt P14416); assay: Displacement of [3H]spiperone from human cloned dopamine receptor D2 long expressed in CHO cells; assay type: cell-based
[2] = target: D(3) dopamine receptor (Homo sapiens, UniProt P35462); assay: biochemical
Description: Displacement of [3H]YM-09151-2 from human cloned dopamine D3 receptor expressed in CHO cells

[3] = target: T1, D(4) dopamine receptor (Homo sapiens, UniProt P21917); assay: Displacement of [3H]YM-09151-2 from human cloned dopamine D4 receptor expressed in CHO cells
T1 sequence (P21917 whole entry): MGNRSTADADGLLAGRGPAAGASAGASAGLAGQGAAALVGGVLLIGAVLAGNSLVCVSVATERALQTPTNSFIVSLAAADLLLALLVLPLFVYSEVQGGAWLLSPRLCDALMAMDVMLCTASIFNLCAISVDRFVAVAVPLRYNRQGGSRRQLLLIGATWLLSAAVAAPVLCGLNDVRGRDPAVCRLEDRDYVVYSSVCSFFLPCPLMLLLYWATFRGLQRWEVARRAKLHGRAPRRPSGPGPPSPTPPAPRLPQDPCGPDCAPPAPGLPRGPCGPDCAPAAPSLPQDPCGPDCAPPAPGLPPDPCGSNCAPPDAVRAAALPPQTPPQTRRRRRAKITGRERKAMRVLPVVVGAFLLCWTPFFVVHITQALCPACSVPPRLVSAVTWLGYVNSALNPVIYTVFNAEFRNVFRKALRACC

D(3) dopamine receptor, sequence (P35462 whole entry): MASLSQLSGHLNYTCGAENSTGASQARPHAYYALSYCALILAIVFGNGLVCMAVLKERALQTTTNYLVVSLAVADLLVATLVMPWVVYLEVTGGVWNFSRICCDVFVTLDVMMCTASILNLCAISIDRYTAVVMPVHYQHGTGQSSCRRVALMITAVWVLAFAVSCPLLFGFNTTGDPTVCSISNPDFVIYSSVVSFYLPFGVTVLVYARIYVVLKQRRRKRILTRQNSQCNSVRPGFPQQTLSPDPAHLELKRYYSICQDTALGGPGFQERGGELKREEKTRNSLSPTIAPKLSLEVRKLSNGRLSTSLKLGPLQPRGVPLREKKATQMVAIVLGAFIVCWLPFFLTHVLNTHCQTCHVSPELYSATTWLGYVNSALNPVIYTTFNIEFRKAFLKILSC
D(2) dopamine receptor, sequence (P14416 whole entry): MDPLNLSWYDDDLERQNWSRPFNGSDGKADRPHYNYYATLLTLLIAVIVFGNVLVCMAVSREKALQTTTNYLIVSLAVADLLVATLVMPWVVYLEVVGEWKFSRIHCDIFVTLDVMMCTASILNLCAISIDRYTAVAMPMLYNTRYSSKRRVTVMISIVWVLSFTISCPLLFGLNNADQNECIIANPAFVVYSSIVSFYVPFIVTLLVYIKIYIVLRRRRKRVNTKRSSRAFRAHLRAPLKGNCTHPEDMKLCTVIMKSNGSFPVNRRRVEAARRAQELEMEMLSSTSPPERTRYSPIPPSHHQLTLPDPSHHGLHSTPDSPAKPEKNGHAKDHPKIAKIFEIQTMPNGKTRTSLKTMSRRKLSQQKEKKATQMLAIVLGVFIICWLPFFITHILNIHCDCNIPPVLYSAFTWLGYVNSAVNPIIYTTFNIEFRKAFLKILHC

SMILES | pKi [1] | pKi [2] | pKi [3]
CCOc1ccccc1N1CCN(CCC[C@H]2CC(c3ccc(OC)c(OC)c3)=NO2)CC1 | 7.15 | 8.29 | 6.65
CCOc1ccccc1N1CCN(CCC[C@@H]2CC(c3ccc(OC)c(OC)c3)=NO2)CC1 | 7.34 | 8.68 | 6.29
COc1ccc(C2=NO[C@@H](CCCN3CCN(C(c4ccc(F)cc4)c4ccc(F)cc4)CC3)C2)cc1OC | 6.40 | 7.70 | 6.32
COc1ccc(C2=NO[C@H](CCCN3CCN(C(c4ccc(F)cc4)c4ccc(F)cc4)CC3)C2)cc1OC | 7.10 | 8.68 | 6.37
